Assay results: patent publication US20260306464A1, “LINAPRAZAN GLURATE FOR TREATING GASTROESOPHAGEAL REFLUX DISEASE (GERD)” (Cinclus Pharma Holding AB (publ), priority 2023, published 2026)

Experiments:
[1] = Dynamic vapour sorption (DVS) analysis; format: physicochemical
Experimental: In some embodiments, Form 1 of the HCl salt of linaprazan glurate is stable at a relative humidity up to 90% at a temperature of 25° C.

[2] = LEED study: heartburn assessed by mRESQ-eDiary; format: in vivo, human
From the text: Relief of reflux-related symptoms may be assessed based on the modified Reflux Symptom Reflux Questionnaire-electronic Diary (mRESQ-eDiary), which is an electronic symptom diary developed for use in partial responders to proton pump inhibitors. mRESQ-eD has three domains (i.e., heartburn, other GERD signs/symptoms and regurgitations/reflux) and eight items (Andrae et al., Clin. Transl. Gastroenterol. 2020, 11(1): e00117).
(§1) The study was a randomized, double-blind, active comparator-controlled study with a parallel group design including four arms with linaprazan glurate and one arm with lansoprazole. Pharmacokinetic (PK) blood sampling pre-dose, close before the first and the second dose administration was performed at Day 7, Day 14 and Day 28 visits days in all patients. 248 patients with erosive esophagitis due to GERD LA grade C or D and patients with erosive esophagitis due to GERD LA grade A or B with at least partial symptom response but still endoscopically unhealed after 8 weeks history of standard treatment healing course with PPI, were randomized.
(§2) Randomization to one of the treatments with linaprazan glurate 25 mg, 50 mg, 75 mg, 100 mg twice daily (BID), or lansoprazole 30 mg once daily (QD) was based on a 1:1:1:1:1 scheme. One site could not enroll more than about 20% of the overall number of patients (48 patients per site).
The duration of each patient's participation in the study, including screening, blind treatment period and open-label treatment period, was approximately 60 days. The patients were randomized for 4 weeks (28 days, −2/+5 days) of double-blind treatment and were provided with IMP for 35 days (including one additional blister pack dispensed at Visit 2/Day 0) to allow for treatment up to the visit window. […] Following the endoscopic evaluation, all patients received subsequent 4 weeks of open-label treatment with lansoprazole 30 mg QD. Repeated symptom evaluation to detect symptom pattern was assessed during this period.
Four doses of linaprazan glurate (25 mg, 50 mg, 75 mg, 100 mg, and dummies) were administered as tablets twice daily. The active comparator lansoprazole 30 mg and its dummy were administered as capsules once daily in the morning. The study drugs were taken with 100 mL of noncarbonated water at least 30 minutes prior to meals. The duration of double-blind treatment was 28 days −2/+5 days. To blind treatment, each patient received 2 tablets (containing doses of linaprazan glurate (LG) or its dummy) and one capsule (containing lansoprazole or its dummy) in the morning and 2 tablets (containing doses of linaprazan glurate (LG) or its dummy) in the evening, according to the scheme below:
A secondary objective of the study was the safety and tolerability of the four dose levels of linaprazan glurate and lansoprazole, with lansoprazole serving as the active comparator. Another secondary objective of the study was the reflux related symptom pattern during the initial 4 weeks treatment with four dose levels of linaprazan glurate and with lansoprazole, and the symptom pattern during the subsequent additional 4 weeks (weeks 5-8) open-label treatment with lansoprazole 30 mg QD. Heartburn-free 24-hour days and 24-hour days with at most mild heartburn symptoms were assessed based on modified eDiary (mRESQ-eD), including splits into day- and nighttime evaluations.
Reflux related symptoms were assessed based on a modified RESQ-eDiary (mRESQ-eD). Patients were asked to report every 12-hours, once before the morning dose and once before the evening dose of the Investigational Medicinal Product (IMP).

[3] = LEED study: safety and tolerability (adverse events); conditions: TEAE, LAN 30 mg QD
[4] = LEED study: endoscopic healing of erosive esophagitis / LA grade improvement after 4 weeks; format: in vivo, human; conditions: lansoprazole 30 mg QD
From the text: The severity of esophagitis is typically indicated using the Los Angeles (LA) classification of reflux esophagitis, which is based on an endoscopic assessment of the patient. The LA grade scoring system divides reflux esophagitis into four categories (LA grade A to D) based on the extent of esophageal mucosal breaks. […] LA grade C esophagitis is defined as one or more mucosal breaks that are continuous between the tops of two mucosal folds, but which involves less than 75% of the esophageal circumference. The most severe form, LA grade D esophagitis, is defined as one or more mucosal breaks involving at least 75% of the esophageal circumference (Lundell et al., Gut 1999, vol. 45, p. 172-180).
As used herein, the terms “improvement of the LA grade” and “LA grade improvement” refer to one or more steps from one LA grade to a lower LA grade (such as from grade D to grade C, B or A) or to being healed. In some embodiments, the improvement of the LA grade is 1 step. In some embodiments, the improvement of the LA grade is 2 steps. In some embodiments, the improvement of the LA grade is 3 steps. In some embodiments, the improvement of the LA grade is 4 steps.
The study included patients with erosive esophagitis (eGERD). Patients were divided into two cohorts, one with patients having moderate to severe eGERD (LA grade C/D) and one with patients having milder eGERD (LA grade A/B) with a history of only partial response to PPI-treatment. The primary endpoint of the study was to support dose selection of linaprazan glurate for the phase III program in eGERD, through central assessment of healing of erosive esophagitis after four weeks of treatment. The sample size, i.e., the number of patients needed, for measuring dose related efficacy was based on the patient cohort with moderate to severe eGERD. After initial endoscopy and other screening procedures, 248 patients were randomized equally into one of five treatment groups, receiving either four weeks treatment with linaprazan glurate in four dose levels, or four weeks lansoprazole in the approved standard eGERD healing dose. Thereafter, an endoscopic evaluation of healing was performed, where healing was defined as no presence of esophageal erosions, i.e., no erosive damage to the esophageal mucosa. After the endoscopic evaluation, all patient groups received lansoprazole for four weeks in a maintenance phase. A retrospective central review of the endoscopy findings was performed, and 162 patients were available for evaluation of the primary endpoint. All enrolled 248 patients were included in the safety analysis.
as §1, §2
The duration of each patient's participation in the study, including screening, blind treatment period and open-label treatment period, was approximately 60 days. The patients were randomized for 4 weeks (28 days, −2/+5 days) of double-blind treatment and were provided with IMP for 35 days (including one additional blister pack dispensed at Visit 2/Day 0) to allow for treatment up to the visit window. […]

[5] = week 4, erosive patients all LA grades, LAN 30 mg QD (N = 20)

Structure (SMILES): Cc1cccc(C)c1CNc1cc(C(=O)NCCOC(=O)CCCC(=O)O)cn2c(C)c(C)nc12
- water uptake ([1]; 90% RH): about 0.2%
- water content of the crystals on humidity changes ([1]; about 30% to about 80% RH): remains substantially constant
- hygroscopicity ([1]; dynamic vapour sorption): very low hygroscopicity

Structure (SMILES): Cc1c(OCC(F)(F)F)ccnc1C[S+]([O-])c1nc2ccccc2[nH]1 (centres unmarked) [lansoprazole, reference compound]
- heartburn severity, rank among groups ([2]; FAS Erosive, first week, morning and evening, lansoprazole 30 mg QD): highest heartburn severity
- severity grade of heartburn, rank among groups ([2]; FAS, first week, morning and evening, lansoprazole 30 mg QD): highest severity grade of heartburn
- heartburn-free days, rank among groups ([2]; LA Grade A/B, week 4, lansoprazole 30 mg QD): most heartburn-free days
- heartburn-free days, rank among groups ([2]; LA Grade A/B, week 6 open-label, lansoprazole group): highest
- heartburn-free days, rank among groups ([2]; LA Grade C/D, week 2-4, lansoprazole 30 mg QD): lowest percentage of heartburn-free days
- heartburn-free days, rank among groups ([2]; LA Grade C/D, week 5-8 open-label, lansoprazole group): lowest percentage of heartburn-free days
- % at most mild symptoms 24-hour days (mean) [2, 5]: 88%
- % heartburn-free 24-hour days (mean) [2, 5]: 52%
- Patients (%) totally free from heartburn [2, 5]: 32%
- Patients (%) with at most mild heartburn [2, 5]: 79%
- Patients (%) with non-mild heartburn [2, 5]: 21%
- COVID-19 (%) [3]: 4.0%
- COVID-19 events [3]: 2 events
- Constipation (%) [3]: 0.0%
- Constipation events [3]: 0 events
- Headache (%) [3]: 2.0%
- Headache events [3]: 1 events
- Nausea (%) [3]: 8.0%
- Nausea events [3]: 4 events
- four-week healing rate ([4]; LA grade A/B): 81%
- healing rate ([4]; LA grade A/B/C/D, 4 weeks, FIG. 8): 69%
- mean LA grade improvement ([4]; LA grade C/D, 4 weeks, FIG. 5): 2.1
- four-week healing rate ([4]; LA grade C/D): 38%
